How the values were obtained:
human adipocytes = experiment: in vitro lipolysis test: glycerol release stimulated by 10 nM isoprenalin in cultured human adipocytes; format: cell-based; conditions: Adipocyte, 15 min preincubation, 4 h, read-out: % INCREASE IN LIPOLYSIS
Description: Determination of extracellular glycerol produced by lipolysis of adipocyte triglycerides.
The in vitro lipolysis test was conducted on human adipocytes obtained from primary cultures of their progenitors, preadipocytes (Promocell), by inducing differentiation. The actual adipocyte differentiation was established by assaying glycerol-3-phosphate dehydrogenase (an enzyme expressed in mature adipocytes, but not in preadipocytes) and the lipids accumulated at intracellular level, with Oil Red O (Sigma).
The PDE3 inhibitors were preincubated with the adipocytes at various concentrations for 15 min; 10 nM of isoprenalin, able to induce weak stimulation of lipolysis (25% of the maximum response obtained with isoprenalin 1 μM), was then added. After 4 h the culture medium was removed, and […].
Lipolytic activity was evaluated by determining the glycerol released into the extracellular medium following triglyceride hydrolysis.
Effect of Some PDE Inhibitors on Glycerol Release, Stimulated by 10 nM Isoprenalin, in Cultured Human Adipocytes

[1] = Determination of the compound in the blood at the end of the observation period; format: in vivo, human; conditions: after topical cream with 1% Milrinone twice a day for 2 months
Description: 10 healthy female adults presenting evident cellulite in the upper outer part of the thighs were examined.
Each patient served as her own control for evaluation of efficacy and safety. The cream containing the active constituent (1% Milrinone) was spread on the outer part of one thigh, while the base cream (without the active constituent) was spread in the same area of the other thigh, in a randomised manner.
Treatment with approx. 2-3 cm of cream, massaged in for 2-3 minutes until absorbed, was repeated twice a day every day for 2 months.

[2] = system: cellulite in the upper outer part of the thighs; experiment: In vivo test: thigh circumference in healthy female adults with cellulite, cream vs base cream; set-up: species or system human; conditions: cream with 1% Milrinone, topical, twice a day for 2 months, 10 healthy female adults
Description: 10 healthy female adults presenting evident cellulite in the upper outer part of the thighs were examined. Each patient served as her own control for evaluation of efficacy and safety. […] Treatment with approx. 2-3 cm of cream, massaged in for 2-3 minutes until absorbed, was repeated twice a day every day for 2 months. […] The circumference of each thigh was measured periodically, two-thirds of the way between the knee and the greater trochanter, until the end of treatment. The reduction in circumference of the pharmacologically treated thigh compared with the untreated thigh was 2.9±0.7 cm, with a range of 1.3-4.7 cm.

Row | Compound | activation at 10 µM (human adipocytes) [%] | also measured
1 | Nc1cc(-c2ccncc2)c[nH]c1=O [Amrinone] | 20 ± 6 | –
2 | O=C1CN2Cc3c(ccc(Cl)c3Cl)N=C2N1 [Anagrelide, anagrelide] | 114 ± 11 | –
3 | Cn1c(=O)c2c(ncn2C)n(C)c1=O [Caffeine, caffeine] | 10 ± 5 | –
4 | O=C1CCc2cc(OCCCCc3nnnn3C3CCCCC3)ccc2N1 [Cilostazol, cilostazol] | 31 ± 9 | –
5 | CSc1ccc(C(=O)c2[nH]c(=O)[nH]c2C)cc1 [Enoximone, enoximone] | 65 ± 4 | –
6 | Cc1[nH]c(=O)c(C#N)cc1-c1ccncc1 [Milrinone, milrinone] | 151 ± 16 | presence of the compound in the blood [1]: did not detect the presence of the compound; reduction in circumference of the pharmacologically treated thigh compared with the untreated thigh ([2]; mean ± spread): 2.9±0.7 cm; reduction in circumference of the pharmacologically treated thigh compared with the untreated thigh, range ([2]; range across patients): 1.3-4.7 cm
7 | COc1ccc(-c2nc3ccc(C4=NNC(=O)CC4C)cc3[nH]2)cc1 (stereo not drawn) [Pimobendan, pimobendan] | 159 ± 22 | –
8 | Cn1c(=O)c2[nH]cnc2n(C)c1=O [Theophylline, theophylline] | 5 ± 4 | –
9 | COc1cc2c(cc1OC)-c1c/c(=N\c3c(C)cc(C)cc3C)n(C)c(=O)n1CC2 [Trequinsin, trequinsin] | 276 ± 59 | –

Source: US20100016324A1, “PHARMACEUTICAL COMPOSITIONS FOR THE TREATMENT OF CELLULITE” (MENARINI RICERCHE S.P.A., priority 2004, published 2010)
